The values below come from ChEMBL document CHEMBL4680343, “Nosiheptide analogues as potential antibacterial agents via dehydroalanine region modifications: Semi-synthesis, antimicrobial activity and molecular docking study” (2021).

By MIC is commonly meant the lowest concentration that inhibits growth of the organism.

The structures appear in SMILES notation. Bounds are passed on as bounds.

What all share (format): functional
Common to all, as to details: time 16-20 hrs

For test [1], the system named is Enterococcus faecium. Nature of the test: Antimicrobial activity against vancomycin-resistant Enterococcus faecium assessed as inhibition of microbial growth incubated for 16 to 20 hrs under ambient air condition by broth microdilution assay.
The subject of test [2] is Staphylococcus aureus. Nature of the test: Antimicrobial activity against methicillin-resistant Staphylococcus aureus assessed as inhibition of microbial growth incubated for 16 to 20 hrs under ambient air condition by broth microdilution assay. Background: Dilution methods test growth across graded concentrations, often in twofold steps.
Test [3] has as its system Staphylococcus aureus. Nature of the test: Antimicrobial activity against Staphylococcus aureus ATCC 25923 assessed as inhibition of microbial growth incubated for 16 to 20 hrs under ambient air condition by broth microdilution assay.

`C/C=C1\NC(=O)[C@H]([C@@H](C)O)NC(=O)c2csc(n2)-c2cc(O)c(-c3nc(C(=O)NC(CNc4ccccc4I)C(N)=O)cs3)nc2-c2csc(n2)[C@@H]2CSC(=O)c3[nH]c4cccc(c4c3C)COC(=O)[C@H](O)C[C@H](NC(=O)c3csc1n3)c1nc(cs1)C(=O)N2` (stereo partly drawn): the minimum inhibitory concentration (MIC) in test [1] was 0.015 µg/mL; in test [2] it was 0.0078 µg/mL; in test [3] it was 0.062 µg/mL.

As for `C/C=C1\NC(=O)[C@H]([C@@H](C)O)NC(=O)c2csc(n2)-c2cc(O)c(-c3nc(C(=O)NC(CNc4cccc(F)c4)C(N)=O)cs3)nc2-c2csc(n2)[C@@H]2CSC(=O)c3[nH]c4cccc(c4c3C)COC(=O)[C@H](O)C[C@H](NC(=O)c3csc1n3)c1nc(cs1)C(=O)N2` (stereo partly drawn), the minimum inhibitory concentration (MIC) in test [1] worked out at 0.031 µg/mL; in test [2], 0.015 µg/mL; in test [3], 0.031 µg/mL.

For `C/C=C1\NC(=O)[C@H]([C@@H](C)O)NC(=O)c2csc(n2)-c2cc(O)c(-c3nc(C(=O)NC(CNc4cccc(C(F)(F)F)c4)C(N)=O)cs3)nc2-c2csc(n2)[C@@H]2CSC(=O)c3[nH]c4cccc(c4c3C)COC(=O)[C@H](O)C[C@H](NC(=O)c3csc1n3)c1nc(cs1)C(=O)N2` (stereo partly drawn), the figures for the minimal inhibitory concentration (MIC) in test [1], in test [2] and in test [3] were 0.031 µg/mL, 0.0078 µg/mL and 0.062 µg/mL, respectively.

Consider `C/C=C1\NC(=O)[C@H]([C@@H](C)O)NC(=O)c2csc(n2)-c2cc(O)c(-c3nc(C(=O)NC(CNc4ccccc4Br)C(N)=O)cs3)nc2-c2csc(n2)[C@@H]2CSC(=O)c3[nH]c4cccc(c4c3C)COC(=O)[C@H](O)C[C@H](NC(=O)c3csc1n3)c1nc(cs1)C(=O)N2` (stereo partly drawn), for which the MIC in test [1] is 0.015 µg/mL; in test [2], < 0.0039 µg/mL; in test [3] it was 0.015 µg/mL.

With `C/C=C1\NC(=O)[C@H]([C@@H](C)O)NC(=O)c2csc(n2)-c2cc(O)c(-c3nc(C(=O)NC(CNc4ccc(F)cc4)C(N)=O)cs3)nc2-c2csc(n2)[C@@H]2CSC(=O)c3[nH]c4cccc(c4c3C)COC(=O)[C@H](O)C[C@H](NC(=O)c3csc1n3)c1nc(cs1)C(=O)N2` (stereo partly drawn), the results for the minimum inhibitory concentration (MIC) in test [1], in test [2] and in test [3] were 0.031 µg/mL, 0.015 µg/mL and 0.031 µg/mL, respectively.

As to `C/C=C1\NC(=O)[C@H]([C@@H](C)O)NC(=O)c2csc(n2)-c2cc(O)c(-c3nc(C(=O)NC(CNc4ccc(C)cc4)C(N)=O)cs3)nc2-c2csc(n2)[C@@H]2CSC(=O)c3[nH]c4cccc(c4c3C)COC(=O)[C@H](O)C[C@H](NC(=O)c3csc1n3)c1nc(cs1)C(=O)N2` (stereo partly drawn), the minimum inhibitory concentration (MIC) in test [1] came to 0.031 µg/mL; in test [2], 0.0078 µg/mL; in test [3], 0.062 µg/mL.

`C/C=C1\NC(=O)[C@H]([C@@H](C)O)NC(=O)c2csc(n2)-c2cc(O)c(-c3nc(C(=O)NC(CNc4ccc(C(F)(F)F)cc4)C(N)=O)cs3)nc2-c2csc(n2)[C@@H]2CSC(=O)c3[nH]c4cccc(c4c3C)COC(=O)[C@H](O)C[C@H](NC(=O)c3csc1n3)c1nc(cs1)C(=O)N2` (stereo partly drawn): the MIC was 0.015 µg/mL in test [1], < 0.0039 µg/mL in test [2] and 0.031 µg/mL in test [3].

For `C=C(NC(=O)c1csc(-c2nc3c(cc2O)-c2nc(cs2)C(=O)N[C@@H]([C@@H](C)O)C(=O)N/C(=C\C)c2nc(cs2)C(=O)N[C@H]2C[C@@H](O)C(=O)OCc4cccc5[nH]c(c(C)c45)C(=O)SC[C@H](NC(=O)c4csc2n4)c2nc-3cs2)n1)C(N)=O`, the figures for the minimum inhibitory concentration (MIC) in test [1], in test [2] and in test [3] were 0.031 µg/mL, 0.0078 µg/mL and 0.062 µg/mL, respectively.

For the compound `C/C=C1\NC(=O)[C@H]([C@@H](C)O)NC(=O)c2csc(n2)-c2cc(O)c(-c3nc(C(=O)NC(CNc4cccc(Br)c4)C(N)=O)cs3)nc2-c2csc(n2)[C@@H]2CSC(=O)c3[nH]c4cccc(c4c3C)COC(=O)[C@H](O)C[C@H](NC(=O)c3csc1n3)c1nc(cs1)C(=O)N2` (stereo partly drawn), the MIC turned out to be 0.031 µg/mL in test [1], 0.0078 µg/mL in test [2] and 0.062 µg/mL in test [3].

For `C/C=C1\NC(=O)[C@H]([C@@H](C)O)NC(=O)c2csc(n2)-c2cc(O)c(-c3nc(C(=O)NC(CNc4ccc(Br)cc4)C(N)=O)cs3)nc2-c2csc(n2)[C@@H]2CSC(=O)c3[nH]c4cccc(c4c3C)COC(=O)[C@H](O)C[C@H](NC(=O)c3csc1n3)c1nc(cs1)C(=O)N2` (stereo partly drawn), the minimal inhibitory concentration (MIC) in test [1] is 0.031 µg/mL; in test [2], 0.015 µg/mL; in test [3], 0.062 µg/mL.

Consider `C/C=C1\NC(=O)[C@H]([C@@H](C)O)NC(=O)c2csc(n2)-c2cc(O)c(-c3nc(C(=O)NC(CNc4cccc(C)c4)C(N)=O)cs3)nc2-c2csc(n2)[C@@H]2CSC(=O)c3[nH]c4cccc(c4c3C)COC(=O)[C@H](O)C[C@H](NC(=O)c3csc1n3)c1nc(cs1)C(=O)N2` (stereo partly drawn), for which the MIC is 0.015 µg/mL in test [1], < 0.0039 µg/mL in test [2] and 0.031 µg/mL in test [3].

In the case of `C/C=C1\NC(=O)[C@H]([C@@H](C)O)NC(=O)c2csc(n2)-c2cc(O)c(-c3nc(C(=O)NC(CNc4cccc(I)c4)C(N)=O)cs3)nc2-c2csc(n2)[C@@H]2CSC(=O)c3[nH]c4cccc(c4c3C)COC(=O)[C@H](O)C[C@H](NC(=O)c3csc1n3)c1nc(cs1)C(=O)N2` (stereo partly drawn), the MIC in test [1] was 0.0078 µg/mL; in test [2] it was < 0.0039 µg/mL; in test [3] it was 0.031 µg/mL.

As to `C/C=C1\NC(=O)[C@H]([C@@H](C)O)NC(=O)c2csc(n2)-c2cc(O)c(-c3nc(C(=O)NC(CNc4ccccc4F)C(N)=O)cs3)nc2-c2csc(n2)[C@@H]2CSC(=O)c3[nH]c4cccc(c4c3C)COC(=O)[C@H](O)C[C@H](NC(=O)c3csc1n3)c1nc(cs1)C(=O)N2` (stereo partly drawn), the minimal inhibitory concentration (MIC) in test [1] was 0.015 µg/mL; in test [2], < 0.0039 µg/mL; in test [3], 0.062 µg/mL.

As for `C/C=C1\NC(=O)[C@H]([C@@H](C)O)NC(=O)c2csc(n2)-c2cc(O)c(-c3nc(C(=O)NC(CNc4ccccc4C(F)(F)F)C(N)=O)cs3)nc2-c2csc(n2)[C@@H]2CSC(=O)c3[nH]c4cccc(c4c3C)COC(=O)[C@H](O)C[C@H](NC(=O)c3csc1n3)c1nc(cs1)C(=O)N2` (stereo partly drawn), the minimum inhibitory concentration (MIC) in test [1] was 0.015 µg/mL; in test [2], < 0.0039 µg/mL; in test [3], 0.031 µg/mL.

Take `C/C=C1\NC(=O)[C@H]([C@@H](C)O)NC(=O)c2csc(n2)-c2cc(O)c(-c3nc(C(=O)NC(CNc4ccc(I)cc4)C(N)=O)cs3)nc2-c2csc(n2)[C@@H]2CSC(=O)c3[nH]c4cccc(c4c3C)COC(=O)[C@H](O)C[C@H](NC(=O)c3csc1n3)c1nc(cs1)C(=O)N2` (stereo partly drawn): the minimum inhibitory concentration (MIC) in test [1] was 0.015 µg/mL; in test [2] it was < 0.0039 µg/mL; in test [3], 0.062 µg/mL.

Consider `C/C=C1\NC(=O)[C@H]([C@@H](C)O)NC(=O)c2csc(n2)-c2cc(O)c(-c3nc(C(=O)NC(CNc4ccccc4C)C(N)=O)cs3)nc2-c2csc(n2)[C@@H]2CSC(=O)c3[nH]c4cccc(c4c3C)COC(=O)[C@H](O)C[C@H](NC(=O)c3csc1n3)c1nc(cs1)C(=O)N2` (stereo partly drawn), for which the minimal inhibitory concentration (MIC) in test [1] is 0.015 µg/mL; in test [2] it was < 0.0039 µg/mL; in test [3] it was 0.015 µg/mL.
